Consider 4 compounds from paper PMC11678425, “(-)-Syringaresinol Exerts an Antidepressant-like Activity in Mice by Noncompetitive Inhibition of the Serotonin Transporter” (Pharmaceuticals, 2024).

One test relates to SERT. To be noted: cited from earlier work.
The next test relates to SERT Y107C/C109A. In words: Cysteine accessibility, extracellular pathway: MTSET reactivity with Y107C/C109A. Type of test: cell-based. To be noted: 10 μM ligand, compared with the control (MTSET alone).
The next test relates to SERT S277C/X5C. In words: Cysteine accessibility, cytoplasmic pathway: MTSEA reactivity with S277C/X5C. The test is classed as cell-based. Particulars: 10 μM ligand, digitonin-permeabilized cells, compared with the control.
The next test concerns the target T1, hSERT WT (Homo sapiens, UniProt P31645).
T1 construct: forward and reverse primers were used to amplify a full-length hSERT; expressed in transfected cells; host or cells: HeLa cells (CCL-2), transient, pcDNA3.1
In words: APP^+ uptake, hSERT WT. Type of test: cell-based. To be noted: WT.

The target of the next test is T2, hSERT Q111N (Homo sapiens, UniProt P31645, Q111N).
T2 construct: forward and reverse primers were used to amplify a full-length hSERT; expressed in transfected cells; host or cells: HeLa cells, transient, pcDNA3.1
In words: APP^+ uptake, hSERT Q111N. Type of test: cell-based. To be noted: S2 site mutant.

The target of another test is T3, hSERT I327A (Homo sapiens, UniProt P31645, I327A).
T3 construct: forward and reverse primers were used to amplify a full-length hSERT; expressed in transfected cells; host or cells: HeLa cells, transient, pcDNA3.1
Description: APP^+ uptake, hSERT I327A. The test is classed as cell-based. Particulars: S2 site mutant.

The target in the next test is T4, hSERT D328A (Homo sapiens, UniProt P31645, D328A).
T4 construct: forward and reverse primers were used to amplify a full-length hSERT; expressed in transfected cells; host or cells: HeLa cells, transient, pcDNA3.1
In words: APP^+ uptake, hSERT D328A. The test is classed as cell-based. Particulars: S2 site mutant.

A further test deals with T5, hSERT E493N (Homo sapiens, UniProt P31645, E493N).
T5 construct: forward and reverse primers were used to amplify a full-length hSERT; expressed in transfected cells; host or cells: HeLa cells, transient, pcDNA3.1
In words: APP^+ uptake, hSERT E493N. The test is classed as cell-based. Particulars: S2 site mutant.

A further test addresses T6, hSERT E494Q (Homo sapiens, UniProt P31645, E494Q).
T6 construct: forward and reverse primers were used to amplify a full-length hSERT; expressed in transfected cells; host or cells: HeLa cells, transient, pcDNA3.1
In words: APP^+ uptake, hSERT E494Q. Type of test: cell-based. Particulars: S2 site mutant.

A further test has as its target T7, hSERT T497A (Homo sapiens, UniProt P31645, T497A).
T7 construct: forward and reverse primers were used to amplify a full-length hSERT; expressed in transfected cells; host or cells: HeLa cells, transient, pcDNA3.1
In words: APP^+ uptake, hSERT T497A. Particulars: S2 site mutant. The test is classed as cell-based.

For the next test, the target named is T8, hSERT G498T (Homo sapiens, UniProt P31645, G498T).
T8 construct: forward and reverse primers were used to amplify a full-length hSERT; expressed in transfected cells; host or cells: HeLa cells, transient, pcDNA3.1
Description: APP^+ uptake, hSERT G498T. Type of test: cell-based. Particulars: S2 site mutant.

A further test deals with T9, hSERT P499G (Homo sapiens, UniProt P31645, P499G).
T9 construct: forward and reverse primers were used to amplify a full-length hSERT; expressed in transfected cells; host or cells: HeLa cells, transient, pcDNA3.1
In words: APP^+ uptake, hSERT P499G. The test is classed as cell-based. To be noted: S2 site mutant.

A further test concerns the target T10, hSERT F556A (Homo sapiens, UniProt P31645, F556A).
T10 construct: forward and reverse primers were used to amplify a full-length hSERT; expressed in transfected cells; host or cells: HeLa cells, transient, pcDNA3.1
Description: APP^+ uptake, hSERT F556A. Type of test: cell-based. Particulars: S2 site mutant.

Another test deals with T11, hSERT S559A (Homo sapiens, UniProt P31645, S559A).
T11 construct: forward and reverse primers were used to amplify a full-length hSERT; expressed in transfected cells; host or cells: HeLa cells, transient, pcDNA3.1
Description: APP^+ uptake, hSERT S559A. The test is classed as cell-based. Particulars: S2 site mutant.

The target of a further test is T12, hSERT P560G (Homo sapiens, UniProt P31645, P560G).
T12 construct: forward and reverse primers were used to amplify a full-length hSERT; expressed in transfected cells; host or cells: HeLa cells, transient, pcDNA3.1
Description: APP^+ uptake, hSERT P560G. The test is classed as cell-based. Particulars: S2 site mutant.

The target of another test is T13, hSERT P561G (Homo sapiens, UniProt P31645, P561G).
T13 construct: forward and reverse primers were used to amplify a full-length hSERT; expressed in transfected cells; host or cells: HeLa
In words: APP^+ uptake, hSERT P561G. Type of test: cell-based. Particulars: S2 site mutant.

The target of another test is T14, hSERT Q562N (Homo sapiens, UniProt P31645, Q562N).
T14 construct: forward and reverse primers were used to amplify a full-length hSERT; expressed in transfected cells; host or cells: HeLa
Description: APP^+ uptake, hSERT Q562N. Type of test: cell-based. Particulars: S2 site mutant.

Another test deals with T15, hSERT L563A (Homo sapiens, UniProt P31645, L563A).
T15 construct: forward and reverse primers were used to amplify a full-length hSERT; expressed in transfected cells; host or cells: HeLa
Description: APP^+ uptake, hSERT L563A. The test is classed as cell-based. To be noted: S2 site mutant.

The next test has as its target T16, hSERT R564A (Homo sapiens, UniProt P31645, R564A).
T16 construct: forward and reverse primers were used to amplify a full-length hSERT; expressed in transfected cells; host or cells: HeLa
Description: APP^+ uptake, hSERT R564A. The test is classed as cell-based. Particulars: S2 site mutant.

The next test has as its target T17, hSERT L565A (Homo sapiens, UniProt P31645, L565A).
T17 construct: forward and reverse primers were used to amplify a full-length hSERT; expressed in transfected cells; host or cells: HeLa
Description: APP^+ uptake, hSERT L565A. The test is classed as cell-based. To be noted: S2 site mutant.

Another test deals with T18, hSERT Y579A (Homo sapiens, UniProt P31645, Y579A).
T18 construct: forward and reverse primers were used to amplify a full-length hSERT; expressed in transfected cells; host or cells: HeLa
In words: APP^+ uptake, hSERT Y579A. Type of test: cell-based. Particulars: S2 site mutant.

For the next test, the target named is T19, hSERT T583A (Homo sapiens, UniProt P31645, T583A).
T19 construct: forward and reverse primers were used to amplify a full-length hSERT; expressed in transfected cells; host or cells: HeLa
In words: APP^+ uptake, hSERT T583A. Type of test: cell-based. Particulars: S2 site mutant.

For `COc1cc(C2OCC3C(c4cc(OC)c(OC5OC(CO)C(O)C(O)C5OC5OCC(O)(CO)C5O)c(OC)c4)OCC23)cc(OC)c1O` (single isomer, unassigned; (-)) [SAG, (-)-syringaresinol-4-O-D-apiofuranosyl-(1→2)-D-glucopyranoside], in the test with SERT, the “inhibitory potency against SERT” value is listed as “a few micromolar range” and the “mode of inhibition of SERT activity” value is on record as “noncompetitively inhibit”.
On to `COc1cc(C2OCC3C(c4cc(OC)c(O[C@@H]5O[C@H](CO)[C@@H](O)[C@H](O)[C@H]5O)c(OC)c4)OCC23)cc(OC)c1O[C@@H]1O[C@H](CO)[C@@H](O)[C@H](O)[C@H]1O` (single isomer, unassigned; (-)) [SBG, (-)-syringaresinol-4,4′-bis-O-β-D-glucopyranoside], for which, in the test on SERT, the “inhibitory potency against SERT” value is on record as “a few micromolar range” and the “mode of inhibition of SERT activity” value is “noncompetitively inhibit”.
Turning to `NCCc1c[nH]c2ccc(O)cc12` [5-HT, 5-hydroxytryptamine, reference compound], the “rate constant of MTSET reactivity with Y107C/C109A” value in the test on SERT Y107C/C109A was “decreased”. The “rate constant of MTSEA reactivity with S277C/X5C” value in the test on SERT S277C/X5C is “increased”.
In the case of `CN(C)c1ccc(-c2cc[n+](C)cc2)cc1` [APP^+, 4-(4-(dimethylamino)phenyl)-1-methylpyridinium], the Vmax is 22.98 ± 0.92 AFU/min at hSERT WT (APP^+ transport); 26.93 ± 1.35 AFU/min on hSERT Q111N (APP^+ transport); 26.54 ± 1.43 AFU/min on hSERT I327A (APP^+ transport); 27.83 ± 0.85 AFU/min on hSERT D328A (APP^+ transport); 25.48 ± 0.96 AFU/min at hSERT E493N (APP^+ transport); 31.12 ± 0.89 AFU/min at hSERT E494Q (APP^+ transport). The Vmax is reported as 26.63 ± 1.09 AFU/min on hSERT T497A (APP^+ transport); 26.30 ± 1.52 AFU/min at hSERT G498T (APP^+ transport); 27.28 ± 0.43 AFU/min on hSERT P499G (APP^+ transport); 26.84 ± 1.74 AFU/min at hSERT F556A (APP^+ transport); 23.68 ± 0.57 AFU/min at hSERT S559A (APP^+ transport); 21.70 ± 0.90 AFU/min at hSERT P560G (APP^+ transport). The Vmax was 26.55 ± 1.08 AFU/min on hSERT P561G (APP^+ transport); 23.57 ± 1.49 AFU/min on hSERT Q562N (APP^+ transport); 23.53 ± 0.45 AFU/min on hSERT L563A (APP^+ transport); 27.10 ± 0.08 AFU/min at hSERT R564A (APP^+ transport); 21.13 ± 0.16 AFU/min on hSERT L565A (APP^+ transport); 23.89 ± 2.33 AFU/min on hSERT Y579A (APP^+ transport). Besides, the Vmax at hSERT T583A (APP^+ transport) came to 26.97 ± 0.26 AFU/min. In addition, the Km on hSERT WT stood at 2.24 ± 0.45 µM; on hSERT Q111N, 3.69 ± 0.36 µM; at hSERT I327A it was 4.27 ± 0.79 µM; on hSERT D328A, 3.81 ± 0.27 µM; at hSERT E493N it was 4.83 ± 0.19 µM; at hSERT E494Q, 6.83 ± 0.86 µM. Besides, the Km at hSERT T497A was 3.85 ± 0.06 µM; on hSERT G498T it was 3.75 ± 0.32 µM; at hSERT P499G, 3.72 ± 0.45 µM; on hSERT F556A, 4.69 ± 1.02 µM; on hSERT S559A, 3.82 ± 0.55 µM; on hSERT P560G it was 1.85 ± 0.16 µM. The Km is 2.73 ± 0.09 µM on hSERT P561G; 1.85 ± 0.36 µM on hSERT Q562N; 1.53 ± 0.07 µM on hSERT L563A; 3.41 ± 0.12 µM on hSERT R564A; 0.68 ± 0.04 µM on hSERT L565A; 2.81 ± 0.08 µM on hSERT Y579A. Also, the Km at hSERT T583A was 3.68 ± 0.15 µM.
